Source: patent US20140271667A1, “Methods and Compositions for Neoadjuvant Therapy” (The Wistar Institute of Anatomy and Biology, priority 2013, published 2014)

Experiments:
PC3 cells [1] = assay: Transwell cell migration; type: cell-based, human; details: Gamitrinib 5 μM, 17-AAG 5 μM, CCCP 12.5 μM, 2-DG 25 mM, rapamycin 0.1 μM, 6 h
Description: (§1) Various tumor cell types were treated as indicated in each experiment, suspended in 0.1% BSA/DMEM and seeded (1.6−3.2×10^3 cells/mm2, depending on the cell type) in the upper compartment of […] pore diameter BD transwells (BD). NIH3T3 conditioned medium was placed in the lower compartment as a chemoattractant. After 6-18 h incubations at 37° C., the transwell membranes were recovered and cells on the upper side (non-migratory) were wiped off the surface. Cells on the lower side of the membrane were fixed in methanol, rinsed in water and mounted on glass slides with Vectashield medium containing DAPI (Vector Laboratories). Migrated cells on each membrane were counted by fluorescence microscopy in 5 different fields. For cell invasion assays, transwell membranes were coated with Matrigel and processed as described above.

PC3 cells [2] = assay: Matrigel-coated transwell cell invasion; type: cell-based, human; details: Gamitrinib 5 μM, 17-AAG 5 μM, CCCP 12.5 μM, 2-DG 25 mM, 16 h
Description: as §1

PC3 cells [3] = assay: Cell proliferation by direct cell counting; type: cell-based, human; details: vs vehicle, Gamitrinib 5 μM, CCCP 12.5 μM, 2-DG 25 mM
Description: (§2) Tumor cells were plated onto 96-well plates at 3.7×10^3/well and treated with vehicle or Gamitrinib (5 μM). After 24 h, cell viability was assessed with a 3 (4,5-dimethyl-thyazoyl-2-yl)2,5 diphenyltetrazolium bromide (MTT) colorimetric assay (24), or, alternatively, by Trypan blue exclusion and light microscopy. Data were background-subtracted relative to vehicle-treated cultures. In some experiments, tumor cell proliferation was assessed by direct cell counting and light microscopy.

PC3 cells [4] = assay: Cell death by Trypan blue exclusion; type: cell-based; details: vs vehicle, Gamitrinib 5 μM, CCCP 12.5 μM, 2-DG 25 mM
Description: as §2

AMPK = assay: Western blotting, AMPK and ACC phosphorylation; type: cell-based, human; details: PC3; Gamitrinib 5 μM time course, metformin 5 mM 6 h, 17-AAG 5 μM time course
Description: (§3) Protein lysates were prepared in RIPA buffer containing 150 mM NaCl, 1.0% Triton X-100, 0.5% sodium deoxycholate, 0.1% SDS, 50 mM Tris, pH 8.0, in the presence of EDTA-free protease inhibitor cocktail (Roche) and phosphatase inhibitor cocktail 2 and 3 (Sigma Aldrich). Equal amounts of protein lysates were separated by SDS gel electrophoresis, transferred to PVDF membranes and incubated with primary antibodies of various specificities. Protein bands were detected by chemiluminescence, as described (21).

ULK1 = assay: Western blotting, ULK1 phosphorylation and level; type: cell-based, human; details: for ULK1 phosphorylation on Ser555: Gamitrinib 5 μM (within 1-2 h); for ULK1 phosphorylation on Ser555 / ULK1 phosphorylation on Ser757: metformin 5 mM 6 h, 17-AAG 5 μM; for ULK1 phosphorylation on Ser757: Gamitrinib 5 μM
Description: as §3

Raptor = assay: Western blotting, Raptor phosphorylation; type: cell-based, human; details: PC3; Gamitrinib 5 μM, metformin 5 mM 6 h, 17-AAG 5 μM
Description: as §3

[5] = test system: Focal Adhesion Kinase (FAK); assay: Western blotting, FAK phosphorylation; type: cell-based, human; details: tumor cells (PC3); Gamitrinib 5 μM, CCCP 12.5 μM, rapamycin 0.1 μM
Description: as §3

4EBP1 = assay: Western blotting, 4EBP1 phosphorylation; type: cell-based, human; details: PC3; rapamycin 0.1 μM
Description: as §3

Compound	tumor cell migration (PC3 cells [1])	tumor cell invasion (PC3 cells [2])	tumor cell proliferation (PC3 cells [3])	cell death by Trypan blue exclusion (PC3 cells [4])	AMPK and ACC phosphorylation (AMPK)	ULK1 level after longer exposure (ULK1; 24-h exposure of tumor cells, data not shown)	ULK1 phosphorylation on Ser555 (ULK1; PC3)	ULK1 phosphorylation on Ser757 (ULK1; PC3)	total level of ULK1 (ULK1; PC3, time points of the Western blot experiment)	Raptor phosphorylation on Ser792 (Raptor)	FAK phosphorylation on Tyr397 and Tyr925 [5]	4EBP1 phosphorylation (4EBP1)
O=CC[C@@H](O)[C@H](O)[C@H](O)CO [2-DG, 2-deoxy-D-glucose]	suppressed tumor cell migration	suppressed	did not affect cell proliferation	did not affect								
C=CCNC1=C2C[C@@H](C)C[C@H](OC)[C@H](O)[C@@H](C)/C=C(\C)[C@H](OC(N)=O)[C@@H](OC)/C=C\C=C(/C)C(=O)NC(=CC1=O)C2=O [17-AAG, 17-allylamino demethoxygeldanamycin]	did not affect tumor cell migration or invasion	did not affect tumor cell migration or invasion			did not affect AMPK or ACC phosphorylation	caused ULK1 degradation	equally reduced	equally reduced	not affected	remained unphosphorylated		
N#CC(C#N)=NNc1cccc(Cl)c1 [CCCP, carbonyl cyanide 3-chlorophenylhydrazone]	suppressed tumor cell migration	suppressed	did not affect cell proliferation	did not affect							abolished FAK phosphorylation	
CN(C)C(=N)N=C(N)N [metformin]					activation of AMPK and ACC		increased ULK1 phosphorylation on Ser555	decreased phosphorylation of ULK1 on Ser757		phosphorylation of Raptor on Ser792		
CO[C@H]1C[C@@H]2CC[C@@H](C)[C@@](O)(O2)C(=O)C(=O)N2CCCC[C@H]2C(=O)O[C@H]([C@H](C)C[C@@H]2CC[C@@H](O)[C@H](OC)C2)CC(=O)[C@H](C)/C=C(\C)[C@@H](O)[C@@H](OC)C(=O)[C@H](C)C[C@H](C)/C=C/C=C/C=C/1C [rapamycin, Rapamycin]	no effect										no effect	suppressed 4EBP1 phosphorylation
